# Test results taken from ChEMBL document CHEMBL1201862, “PubChem BioAssay data set” (2004).
# The source made the active and inactive calls.
# What was measured:
# [1] = biological target: T1, Corticotropin-releasing factor receptor 2/Corticotropin-releasing factor-binding protein (Homo sapiens, UniProt P24387+Q13324); assay: Dose Response confirmation of uHTS hits for small molecule antagonists of the CRF-binding protein and CRF-R2 receptor complex.; type: functional; details: read-out: IC50_Mean
# T1 sequence (Q13324 whole entry): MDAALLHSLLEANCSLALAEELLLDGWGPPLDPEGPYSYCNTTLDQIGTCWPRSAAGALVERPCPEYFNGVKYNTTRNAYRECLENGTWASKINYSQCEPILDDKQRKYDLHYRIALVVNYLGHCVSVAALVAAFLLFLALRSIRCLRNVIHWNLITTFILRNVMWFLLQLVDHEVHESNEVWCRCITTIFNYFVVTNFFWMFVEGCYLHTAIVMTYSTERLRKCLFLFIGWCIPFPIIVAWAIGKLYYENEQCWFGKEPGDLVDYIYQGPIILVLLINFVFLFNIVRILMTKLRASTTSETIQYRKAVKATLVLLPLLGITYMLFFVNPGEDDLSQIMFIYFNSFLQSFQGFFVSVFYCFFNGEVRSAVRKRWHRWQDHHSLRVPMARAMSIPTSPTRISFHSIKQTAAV
# T1 sequence (P24387 whole entry): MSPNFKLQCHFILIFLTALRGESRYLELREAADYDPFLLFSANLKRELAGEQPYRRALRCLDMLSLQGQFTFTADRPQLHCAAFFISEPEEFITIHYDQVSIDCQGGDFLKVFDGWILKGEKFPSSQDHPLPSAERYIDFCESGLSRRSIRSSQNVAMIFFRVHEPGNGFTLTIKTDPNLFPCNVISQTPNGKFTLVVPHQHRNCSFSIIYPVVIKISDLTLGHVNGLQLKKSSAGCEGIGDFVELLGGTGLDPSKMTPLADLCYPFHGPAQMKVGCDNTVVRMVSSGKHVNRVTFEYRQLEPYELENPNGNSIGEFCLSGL
# [2] = biological target: T1, Corticotropin-releasing factor receptor 2/Corticotropin-releasing factor-binding protein; assay: activators of CRF receptor 2 with binding protein – uHTS hits, confirmation (AID 602473); type: functional; details: read-out: EC50_Mean
# [3] = system: H9c2; assay: cells; type: functional, cell-based; details: Rattus norvegicus, H9c2, Myocardium;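 further: confirmatory concentration-response retest of ultra-high-throughput screening hits for modulation of myocardial damage; cell death induced by hydrogen peroxide oxidative stress; compound pretreatment for 60 min then peroxide exposure for 2 h; potency is for protecting the cells against peroxide damage rather than for killing them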
# [4] = biological target: Paired box protein Pax-8 (Homo sapiens, UniProt Q06710); assay: inhibitors of PAX8-driven TPO luciferase reporter, dose response, RMG-I cells, cherry-pick (AID 687027); type: functional, cell-based;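 further: luciferase reporter driven by Pax8 target thyroperoxidase promoter measured by SteadyGlo luminescence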
# [5] = Luminescence Cell-Based Dose Response HTS to Identify Activators of Luciferase Translation or Activity in H4 […] Cells. [Related pubchem assays: 1829 (Project Summary), 1814 (Primary HTS)]; type: functional
# [6] = system: H4; assay: Luminescence Cell-Based Dose Response HTS to Identify Activators of 5'UTR Stem-Loop Driven Prion Protein mRNA Translation in H4 Neuroglioblastoma Cells. [Related pubchem assays: 1829 (Project Summary), 1814 (Primary HTS)]; type: functional; details: Homo sapiens
# [7] = biological target: Cytochrome P450 2D6 (Homo sapiens, UniProt P10635);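 further: CYP2D6 member of a cytochrome P450 panel assay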
# [8] = biological target: T2, Cytochrome P450 1A2 (Homo sapiens, UniProt P05177);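 further: PubChem cytochrome P450 panel assay, CYP1A2 panel member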
# T2 sequence (P05177 whole entry): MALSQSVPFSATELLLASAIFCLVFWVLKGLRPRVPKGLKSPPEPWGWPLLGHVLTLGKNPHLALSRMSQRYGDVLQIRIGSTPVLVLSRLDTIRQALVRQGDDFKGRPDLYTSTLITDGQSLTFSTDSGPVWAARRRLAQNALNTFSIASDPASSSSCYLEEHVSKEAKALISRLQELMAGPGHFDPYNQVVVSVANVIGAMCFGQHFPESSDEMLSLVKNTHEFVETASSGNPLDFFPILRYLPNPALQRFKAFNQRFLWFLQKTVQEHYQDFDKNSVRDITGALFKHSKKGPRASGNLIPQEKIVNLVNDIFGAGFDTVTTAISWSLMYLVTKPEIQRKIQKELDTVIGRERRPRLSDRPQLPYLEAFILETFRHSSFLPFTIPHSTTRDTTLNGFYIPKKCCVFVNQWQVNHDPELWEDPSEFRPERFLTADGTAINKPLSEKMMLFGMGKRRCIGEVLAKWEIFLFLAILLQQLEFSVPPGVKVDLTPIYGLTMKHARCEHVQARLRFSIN
# [9] = HEp-2 cell cytotoxicity, dose response, cytotoxicity control for RSV inhibitor project, HTS (AID 2410); type: functional; details: human respiratory syncytial virus
# [10] = biological target: Cytochrome P450 2C19 (Homo sapiens, UniProt P33261); assay: Cytochrome panel assay with activity outcomes. Panel member name: p450-cyp2c19 Compounds with AC50 equal or less than 10 uM are considered active; type: functional
# [11] = Luminescence Cell-Based Dose Retest to Confirm Inhibitors of Cancer Stem Cells. [Related pubchem assays (depositor defined):AID2717, AID2721]; type: functional; details: Homo sapiens
# [12] = inhibitors of intracellular T. cruzi replication, confirmation, NIH3T3 host cells, beta-gal luminescence (AID 2044); type: functional, cell-based;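 further: intracellular parasites grown in NIH/3T3 mouse fibroblasts as host cells; luminescent beta-galactosidase reporter signal from transgenic T. cruzi replicating inside host cells; inhibitors lower the luminescence signal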
# [13] = cytotoxicity toward NIH3T3 fibroblasts, dose response, counter-screen, cell-based, ATP luminescence, mouse fibroblasts (AID 2010); type: functional;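 further: cells exposed to compound for about 90 hours before reading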
# [14] = system: Streptococcus; assay: Group A Streptococcus viability loss, dose response, counter-screen for streptokinase expression inhibitor project, luminescence, BacTiterGlo (AID 1915); type: functional, organism-based;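 further: potency for reduction of bacterial viability or growth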
# [15] = system: Streptococcus sp. 'group A'; assay: growth inhibition of control SK(-) GAS strain, dose response, counter-screen for streptokinase expression inhibitor project, luminescence, kanamycin, BacTiterGlo, confirmation (AID 1900); type: functional, organism-based
# [16] = biological target: T3, Streptokinase A (Streptococcus pyogenes serotype M1, UniProt P10520); assay: S. pyogenes streptokinase expression inhibitors, potency, dose response, plasminogen activation absorbance, OD405 (AID 1914); type: functional, Streptococcus pyogenes M1 GAS;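 further: secreted streptokinase activity via plasminogen activation per viability signal from cell pellet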
# T3 sequence (P10520 whole entry): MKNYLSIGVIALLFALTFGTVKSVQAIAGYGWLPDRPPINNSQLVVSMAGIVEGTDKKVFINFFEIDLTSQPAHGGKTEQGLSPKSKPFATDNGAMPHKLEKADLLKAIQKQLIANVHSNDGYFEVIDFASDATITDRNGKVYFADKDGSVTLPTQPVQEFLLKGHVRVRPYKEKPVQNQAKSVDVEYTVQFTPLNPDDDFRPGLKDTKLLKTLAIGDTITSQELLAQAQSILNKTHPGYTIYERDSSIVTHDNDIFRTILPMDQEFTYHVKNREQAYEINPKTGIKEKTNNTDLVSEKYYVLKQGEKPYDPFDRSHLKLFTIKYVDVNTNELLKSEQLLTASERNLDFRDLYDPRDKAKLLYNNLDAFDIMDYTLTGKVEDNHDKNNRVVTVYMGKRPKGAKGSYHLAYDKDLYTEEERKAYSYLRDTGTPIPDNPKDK
# Sequence of Cytochrome P450 2C19 (P33261 whole entry): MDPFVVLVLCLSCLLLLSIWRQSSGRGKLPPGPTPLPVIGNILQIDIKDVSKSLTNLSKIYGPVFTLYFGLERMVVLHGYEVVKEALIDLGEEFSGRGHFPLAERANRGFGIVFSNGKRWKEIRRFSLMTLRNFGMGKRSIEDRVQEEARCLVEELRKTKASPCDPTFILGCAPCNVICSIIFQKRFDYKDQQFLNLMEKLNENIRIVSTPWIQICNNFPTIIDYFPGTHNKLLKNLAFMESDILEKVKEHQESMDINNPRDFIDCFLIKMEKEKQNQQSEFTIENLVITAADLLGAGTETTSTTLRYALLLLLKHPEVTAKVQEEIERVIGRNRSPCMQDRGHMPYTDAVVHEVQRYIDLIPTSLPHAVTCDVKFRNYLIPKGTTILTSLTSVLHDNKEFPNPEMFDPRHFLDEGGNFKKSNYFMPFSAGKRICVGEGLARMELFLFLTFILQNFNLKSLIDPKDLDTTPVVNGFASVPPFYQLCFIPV
# Sequence of Cytochrome P450 2D6 (P10635 whole entry): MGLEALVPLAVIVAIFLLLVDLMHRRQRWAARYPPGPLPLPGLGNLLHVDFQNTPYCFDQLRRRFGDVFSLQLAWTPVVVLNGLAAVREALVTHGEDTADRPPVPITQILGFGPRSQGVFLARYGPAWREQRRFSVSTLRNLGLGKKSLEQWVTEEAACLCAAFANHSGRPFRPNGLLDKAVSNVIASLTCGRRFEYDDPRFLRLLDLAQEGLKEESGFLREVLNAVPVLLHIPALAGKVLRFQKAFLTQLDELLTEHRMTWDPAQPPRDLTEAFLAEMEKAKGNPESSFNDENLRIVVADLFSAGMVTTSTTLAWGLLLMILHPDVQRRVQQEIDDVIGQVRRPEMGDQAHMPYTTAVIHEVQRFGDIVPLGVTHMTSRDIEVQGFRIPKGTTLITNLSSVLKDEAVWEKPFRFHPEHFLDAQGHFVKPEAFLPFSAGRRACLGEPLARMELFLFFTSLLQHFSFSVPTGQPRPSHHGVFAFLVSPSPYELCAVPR
# Sequence of Paired box protein Pax-8 (Q06710 whole entry): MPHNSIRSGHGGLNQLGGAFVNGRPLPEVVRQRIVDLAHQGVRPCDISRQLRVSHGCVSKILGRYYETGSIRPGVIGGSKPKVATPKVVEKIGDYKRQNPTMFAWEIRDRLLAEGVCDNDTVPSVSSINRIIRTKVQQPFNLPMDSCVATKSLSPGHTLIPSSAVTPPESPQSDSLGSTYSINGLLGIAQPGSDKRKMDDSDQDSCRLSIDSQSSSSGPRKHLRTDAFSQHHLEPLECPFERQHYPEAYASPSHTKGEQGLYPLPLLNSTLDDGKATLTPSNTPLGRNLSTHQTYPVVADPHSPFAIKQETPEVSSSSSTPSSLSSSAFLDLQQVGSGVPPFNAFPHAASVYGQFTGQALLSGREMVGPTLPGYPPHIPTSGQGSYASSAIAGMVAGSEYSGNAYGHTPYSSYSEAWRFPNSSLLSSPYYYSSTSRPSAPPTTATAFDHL
compound,measurement,setting,value
Cc1noc(C(F)(F)F)c1C(=O)NNC(=O)c1cccc(C(F)(F)F)c1,IC50,[1],> 47.1 µM (inactive)
same,EC50,[2],> 53 µM (inactive)
Oc1nc2cc(F)ccc2c2ccc(F)cc12,IC50,[3],> 79 µM (inactive)
CC(=O)c1ccc(-c2cnc3c(NC=O)cc(-c4cccc(C(=O)N(C)C)c4)cn23)cc1,IC50,[3],11.2 µM (active)
Cc1ccc(S(=O)(=O)N(C)C[C@H]2Oc3c(NC(=O)Nc4ccc(F)cc4)cccc3C(=O)N([C@@H](C)CO)C[C@H]2C)cc1,AC50,[4],11.5 µM (active)
Cc1nn(-c2ccccc2)c(C)c1/C=N/NC(=O)c1cc(C(C)(C)C)[nH]n1,IC50,[3],12.2 µM (active)
CC#CC(=O)N1CCC(C(=O)Nc2ccc(Oc3ccccc3)nc2)CC1,EC50,[5],25.4 µM (active)
same,EC50,[6],73 µM (active)
Cc1ccc(-n2nnnc2C(=Cc2ccc(N(C)C)cc2)c2nnnn2-c2ccc(C)cc2)cc1,AC50,[7],15.8 µM (inconclusive)
same,AC50,[8],12.6 µM (inconclusive)
O=C(c1cc(-c2cccnc2)nc2ccc(Br)cc12)N1CCN(c2ncccn2)CC1,IC50,[3],> 79 µM (inactive)
C/C(=N\NC(N)=O)c1ccccc1Cl,CC50,[9],19.4 µM (active)
CCN(CC)C(=O)c1ccc(-c2nnc(Nc3ccc(O)cc3)c3ccccc23)cc1,IC50,[3],14.2 µM (active)
CN(C(=O)CCCOc1ccc2[nH]c(=O)ccc2c1)C1CCCCC1 [CILOSTAMIDE],AC50,[8],31.6 µM (inconclusive)
same,AC50,[10],inconclusive
Oc1ccc(C[C@H]2CN=C(S)N2CCc2cc(C(F)(F)F)cc(C(F)(F)F)c2)cc1,CC50,[9],28.9 µM (active)
COC(=O)c1cc(NC(=O)c2cc3ccccc3o2)cc(C(=O)OC)c1,IC50,[3],> 79 µM (inactive)
CC(=O)Nc1ccc(-c2csc(NC(=O)CCCc3cccs3)n2)cc1,AC50,[11],7.57 µM (active)
Cc1c(-c2cccc(Cl)c2)nc2ccccc2c1C(=O)OCC(=O)Nc1ccc2c(c1)OCO2,EC50,[12],2.22 µM (active)
same,EC50,[13],> 60 µM (not active)
same,CC50,[9],16.3 µM (active)
CCN(CCCNC(=O)C1CCN(S(=O)(=O)CC)CC1)c1cccc(C)c1,AC50,[8],31.6 µM (inconclusive)
same,AC50,[10]; read-out: AC50,39.8 µM (inconclusive)
CCOC(=O)c1c(-c2cccs2)csc1NC(=O)C(C)(C)C,CC50,[9],49.8 µM (active)
O=c1c(Cl)c(NCc2ccc(F)cc2)cnn1C12CC3CC(CC(C3)C1)C2,AC50,[11],0.913 µM (active)
COCCn1c(=O)c(-c2ccc(Cl)cc2)nc2cnc(N3CCOCC3)nc21,AC50,[8],1 µM (inconclusive)
CCCCNc1c(-c2ccc(OC)c(SC3CCCCC3)c2)nc2cc(C)ccn12,AC50,[11],4.36 µM (active)
same,EC50,[14],10.1 µM (active)
same,EC50,[15],3.09 µM (active)
same,EC50,[16],9.9 µM (active)
Cc1cnc(CNc2cc(-c3ccoc3)ncn2)cn1,AC50,[8],25.1 µM (inconclusive)
COc1ccc(CN(C(=O)c2nsc(Cl)c2Cl)C(C(=O)NC2CCCC2)c2ccc(OC)cc2)cc1 (centres undefined),EC50,[2],> 53 µM (inactive)
CC1Cc2cc(S(=O)(=O)N3CCCCC3C)ccc2N1C(=O)C1CCC1 (centres undefined),CC50,[9],20.8 µM (active)
COc1ccccc1N(CC(=O)N/N=C/c1ccc(OCC(=O)NCc2ccco2)cc1)S(=O)(=O)c1ccc(C)cc1,CC50,[9],42.5 µM (active)
COc1ccc(/C=C(\C#N)C(=O)c2c(C)[nH]c3ccccc23)cc1OC,IC50,[3],> 79 µM (inactive)
CCCN1CCc2c(sc(NC(=O)c3ccc(S(=O)(=O)N(C)c4ccccc4)cc3)c2C(N)=O)C1,EC50,[2],4.43 µM (active)
CC(C)(C)OC(=O)NCCCCCNC(=O)c1[nH]cnc1C(=O)Nc1cc(Br)ccc1F,IC50,[3],> 79 µM (inactive)
O=C(N/N=C\c1ccccn1)C1COc2cc3ccccc3cc2O1 (centres undefined),IC50,[3],> 79 µM (inactive)
O=C(O)[C@@H]1CCCN1Cc1cc2ccccc2c2ccccc12,AC50,[8],6.31 µM (inconclusive)
COc1ccc(C(=O)N2CCC[C@@]3(CCN(Cc4ccccc4)C3)C2)cc1,AC50,[8],12.6 µM (inconclusive)
N=C(N/N=C\c1ccc(Br)cc1)N/N=C\c1ccc(Br)cc1,AC50,[11],3.04 µM (active)
same,EC50,[14],5.33 µM (active)
same,EC50,[15],2.39 µM (active)
Brc1ccc(-c2noc(CCc3ccccc3)n2)cc1,CC50,[9],47.7 µM (active)
Nc1ncnc(Nc2cccc(Cl)c2Cl)n1,CC50,[9],26.1 µM (active)
Cn1cccc1C(=O)N1CCC2(CCCN(c3ccccc3)C2)CC1,AC50,[8],10 µM (inconclusive)
COc1ccc(C(=O)COC(=O)Cc2nnc(O)c3ccccc23)c(OC)c1,IC50,[3],> 79 µM (inactive)
COC(=O)[C@@H]1[C@@H]2C[C@H]3c4[nH]c5cc(OC)ccc5c4CCN3C[C@@H]2C[C@H](OC(=O)c2cc(OC)c(OC)c(OC)c2)[C@H]1OC,AC50,[8],15.8 µM (inconclusive)
COc1ccc(-c2oc3c4c(cc(OC)c3c(=O)c2CC=C(C)C)OC(C)(C)C=C4)c(OC)c1,AC50,[11],6.2 µM (active)
same,EC50,[12],2.08 µM (active)
same,EC50,[13],> 60 µM (not active)
c1cc2cc(-c3c(-c4ccc5c(c4)OCO5)noc3-c3ccsc3)ccc2[nH]1,AC50,[11],1.69 µM (active)
same,CC50,[9],44.8 µM (active)
CC(C)(C)C1COc2ccccc2N1C(=O)c1ccccc1Cl (centres undefined),EC50,[2],11.3 µM (active)
c1ccc2sc(SCSc3nc4ccccc4s3)nc2c1,AC50,[7],2.51 µM (inconclusive)
same,EC50,[14],> 150 µM (not active)
same,EC50,[15],> 150 µM (not active)
same,EC50,[16],> 150 µM (not active)
same,CC50,[9],29.5 µM (active)
